According to ChEMBL document CHEMBL4138294, “Cybastacines A and B: Antibiotic Sesterterpenes from a Nostoc sp. Cyanobacterium” (2018):

Key:
Type in all cases: functional
[1] = tested on: Tsukamurella pulmonis; experiment: Antibacterial activity against Tsukamurella pulmonis clinical isolate by CLSI M07-A9 protocol based assay
[2] = tested on: Mycobacteroides abscessus; experiment: Antibacterial activity against Mycobacterium abscessus clinical isolate by CLSI M07-A9 protocol based assay
[3] = tested on: Nocardia cyriacigeorgica; experiment: Antibacterial activity against Nocardia cyriacigeorgica clinical isolate by CLSI M07-A9 protocol based assay
[4] = tested on: Nocardia carnea; experiment: Antibacterial activity against Nocardia carnea clinical isolate by CLSI M07-A9 protocol based assay
[5] = tested on: Enterococcus faecalis; experiment: Antibacterial activity against Enterococcus faecalis clinical isolate by CLSI M07-A9 protocol based assay
[6] = tested on: Streptococcus pyogenes; experiment: Antibacterial activity against Streptococcus pyogenes clinical isolate by CLSI M07-A9 protocol based assay
[7] = tested on: Staphylococcus epidermidis; experiment: Antibacterial activity against Staphylococcus epidermidis clinical isolate by CLSI M07-A9 protocol based assay
[8] = tested on: Staphylococcus aureus; experiment: Antibacterial activity against Staphylococcus aureus clinical isolate by CLSI M07-A9 protocol based assay
[9] = tested on: Enterococcus faecium; experiment: Antibacterial activity against Enterococcus faecium clinical isolate by CLSI M07-A9 protocol based assay

Row | SMILES | MIC [1] [µg/mL] | MIC [2] [µg/mL] | MIC [3] [µg/mL] | MIC [4] [µg/mL] | MIC [5] [µg/mL] | MIC [6] [µg/mL] | MIC [7] [µg/mL] | MIC [8] [µg/mL] | MIC [9] [µg/mL]
1 | C[C@@H](O)[C@H]1C(=O)N2C(C(=O)O)=C(SCCNC=N)C[C@H]12 [IMIPENEM ANHYDROUS] | ≤ 8 | ≤ 8 | ≤ 8 | ≤ 8 | – | – | – | – | –
2 | CN[C@H](CC(C)C)C(=O)N[C@H]1C(=O)N[C@@H](CC(N)=O)C(=O)N[C@H]2C(=O)N[C@H]3C(=O)N[C@H](C(=O)N[C@H](C(=O)O)c4cc(O)cc(O)c4-c4cc3ccc4O)[C@H](O)c3ccc(c(Cl)c3)Oc3cc2cc(c3O[C@@H]2O[C@H](CO)[C@@H](O)[C@H](O)[C@H]2O[C@H]2C[C@](C)(N)[C@H](O)[C@H](C)O2)Oc2ccc(cc2Cl)[C@H]1O [VANCOMYCIN] | – | – | – | – | ≤ 8 | ≤ 16 | ≤ 8 | ≤ 8 | ≤ 8
3 | CC1(C)CCC[C@]2(C)C3=C(CC[C@@H]12)[C@@]1(C)CC[C@@]2(C)NC(=N)NC[C@@H]2[C@@]1(C)C[C@H]3O | ≤ 8 | ≤ 16 | ≤ 16 | ≤ 16 | ≤ 32 | ≤ 32 | ≤ 32 | ≤ 32 | ≤ 32
4 | CC1(C)CCC[C@]2(C)[C@@H]3C(=CC[C@@H]12)[C@@]1(C)CC[C@@]2(C)NC(=N)NC[C@@H]2[C@@]1(C)C[C@H]3O | ≤ 2 | ≤ 4 | ≤ 4 | ≤ 4 | ≤ 4 | ≤ 4 | ≤ 4 | ≤ 4 | ≤ 4
